Measured values reported in patent US12453723B2, “Use of chidamide in preparing drug for treating renal fibrosis” (THE SECOND AFFILIATED HOSPITAL OF SOOCHOW UNIVERSITY, priority 2023, dated 2025).

What was measured:
[1] = system: TGF-β stimulated renal tubular epithelial cells HK-2; assay: PI3K inhibitor LY 294002 and chidamide on fibrosis markers Collagen I and α-SMA in TGF-β stimulated HK-2 (immunoblotting); format: cell-based; details: FIG. 8B
Source text: Subsequently, this example further investigated the change of chidamide on fibrosis markers after LY 294002 treatment was used in TGF-β stimulated renal tubular epithelial cells HK-2. […] The above experimental results initially verify that chidamide is very likely to inhibit the progression of renal fibrosis through the PI3K/Akt signaling pathway.
In FIG. 8, (A) the effect of different concentrations of LY 294002 (LY) on protein expression of fibrosis markers Collagen I and α-SMA in TGF-β stimulated renal tubular epithelial cells HK-2 was detected by the immunoblotting experiment; (B) the effect of LY 294002 (LY) on fibrosis marker Collagen I and α-SMA protein expression by chidamide was detected in TGF-β stimulated renal tubular epithelial cells HK-2 by the immunoblotting experiment.

[2] = system: PI3K/Akt signaling pathway; assay: PI3K/Akt signaling pathway in UUO mouse model (immunoblotting); format: in vivo
Source text: (§1) The PI3K-Akt signaling pathway is an intracellular signal transduction pathway which responds to extracellular signals, promotes metabolism, proliferation, cell survival, growth and angiogenesis, and participates in pathophysiological processes of multiple diseases. […] The above experimental results all verify that chidamide can inhibit the PI3K/Akt signaling pathway.
(§2) In FIG. 7, (A) the effects of chidamide onprotein expression of p-PI3K, PI3K, p-Akt and Akt in TGF-β stimulated renal tubular epithelial cell HK-2 were detected by the immunoblotting experiment; (B-C) the statistical charts showingthe effect of chidamide onp-PI3K/PI3K and p-Akt/Akt ratios in TGF-β stimulated renal tubular epithelial cell HK-2, n=3, Mean±SDs, Student's t-test, *: P<0.05; (D) the effectof chidamide on protein expression of p-PI3K, PI3K, p-Akt and Akt in UUO mouse model was detected by the immunoblotting experiment (n=4); (E) the effect of chidamide on proein expression of autophagy markers of TGF-β stimulated renal tubular epithelial cell HK-2 was detected by the immunoblotting experiment; (F) the effect of chidamide on protein expression of autophagy markers as well as p-mTOR and mTOR in UUO mouse model was detected by the immunoblotting experiment (n=4).

[3] = system: TGF-β stimulated renal tubular epithelial cells HK-2; assay: Fibrosis markers in TGF-β stimulated HK-2 cells (immunoblotting, qPCR); format: cell-based; details: different concentrations of chidamide
Procedure: Example 1 verified that HDAC1/2/3/10 can participate in renal fibrosis, and example 2 further explored the effect of chidamide on renal fibrosis in TGF-β stimulated renal tubular epithelial cells. In example 2, cells were treated by using different concentrations of chidamide and then stimulated by adding TGF-β, and the protein expression and mRNA levels of fibrosis markers were detected respectively by using immunoblotting and qPCR experiments.
In FIG. 2, (A) the effect of different concentrations of chidamide on protein expression of fibrosis markers α-SMA and Vimentin (Vim) in TGF-β stimulated HK-2 cells was detected by the immunoblotting experiment; (B-C) the statistical results of α-SMA and Vimentin in FIG. A in 3 biological duplications, Mean±SDs, Student's t-test, *: P<0.05; **: P<0.01; (D-E) the effect of different concentrations of chidamide on […] experiment in TGF-β stimulated HK-2 cells, and the statistical resultsare 3 technical duplications, Mean±SD, Student's t-test, *: P<0.05, **: P<0.01, ***: P<0.001, ****: P<0.0001.

UUO mice = assay: Renal fibrosis mouse model (UUO): renal morphology, renal function, collagen deposition, fibrosis markers; format: in vivo
Source text: In this example, a renal fibrosis mouse model (UUO: Unilateral Uretera Obstruction, renal interstitial fibrosis model) was constructed through UUO surgery at the same time. On the 7th day after surgery, the protein expression of HDAC1/2/3/10 in test group (UUO) and control group (Sham) was detected respectively through immunoblotting and immunohistochemical tests.
In this example, mice were divided into 7 groups at random with 7 mice in each group, which were Sham group (sham), Sham+chidamide group (Sham-Chi 10 mg/kg/d), model group (UUO), UUO+Enacept positive control group (UUO-En 10 mg/kg/d), UUO+chidamide low-dose administration group (UUO-Chi 1 mg/kg/d), UUO+chidamide medium-dose administration group (UUO-Chi 5 mg/kg/d) and UUO+chidamide high-dose administration group (UUO-Chi 10 mg/kg/d), respectively. All drugs were administrated by gavage 3 days before modeling, once a day, until 7 days after surgery. Mice were weighed everyday after surgery, and then growth curves were plotted. After administration was ended, the mice were anesthetized, the eye sockets were removed and bloods were collected for the detection of serum creatinine (Scr) and urea nitrogen (BUN). At the same time, left and right kidneys were taken and then weighed after hydronephrosis was removed, so as to obtain the renal weight indexes of the obstructed kidneys in mice (kidney weight/mouse weight at the obstructed side). The photos were taken.
In FIG. 3, (A) the weight growth curve of mice verified the effect of UUO modeling and intragastric administration of chidamide on mouse weight, n=7, Mean±SDs, Student's t-test, ns: not significant; (B) the renal weight index change of mice (the statistical chart above, n=4, Mean±SDs, Student's t-test, *: P<0.05, **: P<0.01, ****: P<0.0001, ns: not significant) and renal tissue in vitro photos (below) verified the effect of chidamide on renal morphological changes of UUO mice; (C-D) mouse creatinine (C) and urea nitrogen (D) changes verified the effect of chidamide on renal functions of UUO mice, n=5-6, Mean±SDs, Student's t-test, *: P<0.05, **: P<0.01, ***: P<0.001, ns: not significant.
In the above constructed UUO mouse model of this example, the effect of chidamide on renal interstitial collagen fiber deposition was detected further by Masson staining.
In FIG. 4, (A-B) the deposition of renal interstitial collagen fibers was detected after UUO modeling and chidamide was administrated, (A) a typical picture for Masson staining; (B) the statistical results of Masson staining area proportion, n=6, Mean±SDs, Student's t-test, *: P<0.05, **: P<0.01, ****: P<0.0001, ns: not significant.
In this example, the improvement effect of chidamide on UUO renal fibrosis was further detected. In the above constructed UUO mouse model of this example, the effect of chidamide on protein expression of renal fibrosis markers was detected respectively by immunohistochemistry and immunoblotting experiments, and the change in fibrosis marker mRNA was detected by the qPCR experiment. […]

[4] = system: PI3K/Akt signaling pathway; assay: PI3K/Akt signaling pathway in TGF-β stimulated HK-2 cells (immunoblotting); format: cell-based
Source text: as §1, §2

Question: `Nc1cc(F)ccc1NC(=O)c1ccc(CNC(=O)/C=C/c2cccnc2)cc1` [chidamide, N-(2-amino-4-fluorophenyl)-4-[N-[(E)-3-(3-pyridine)acryloyl]aminomethyl]benzamide] was tested. Which “expression of fibrosis markers Collagen I and α-SMA” value ([1]; TGF-β stimulated HK-2, chidamide with PI3K inhibitor LY 294002 used simultaneously) did it give?
Answer: cannot affect the expression of fibrosis markers any more

Question: And the “protein expression of fibrosis markers Collagen I and α-SMA” value ([1]; TGF-β stimulated HK-2, used alone)?
Answer: can inhibit

Question: What about the p-Akt/Akt ratio ([2]; FIG. 7D) of the same molecule?
Answer: significantly reduced

Question: What about the p-PI3K/PI3K ratio ([2]; FIG. 7D) of the same molecule?
Answer: significantly reduced

Question: And the “autophagy flow (autophagy markers)” value ([2]; FIG. 7F)?
Answer: restore an autophagy flow

Question: And the p-mTOR/mTOR ratio ([2]; FIG. 7F)?
Answer: reduce

Question: And the “protein expression of fibrosis markers (α-SMA, Vimentin)” value ([3]; immunoblotting, FIG. 2A-C)?
Answer: significantly decreased

Question: What about the “mRNA level of fibrosis markers (α-SMA, Vimentin)” value ([3]; qPCR, FIG. 2D-E) of the same molecule?
Answer: significantly decreased

Question: And the “serum creatinine (Scr)” value (UUO mice; UUO mice after chidamide administration, FIG. 3C)?
Answer: obviously fall back

Question: What about the “urea nitrogen (BUN)” value (UUO mice; UUO mice after chidamide administration, FIG. 3D) of the same molecule?
Answer: obviously fall back

Question: What about the “renal interstitial collagen fiber deposition” value (UUO mice; UUO mice, Masson staining, FIG. 4) of the same molecule?
Answer: significantly improved

Question: What about the “protein expression of renal fibrosis markers” value (UUO mice; UUO mouse renal tissues, immunohistochemistry and immunoblotting, FIGS. 5A-E) of the same molecule?
Answer: significantly fall back

Question: What about the “mRNA of renal fibrosis markers” value (UUO mice; UUO mouse renal tissues, qPCR, FIGS. 5F-I) of the same molecule?
Answer: significantly fall back

Question: What about the “ureteral dilation degree and renal tissue squeezing degree” value (UUO mice; UUO+chidamide group compared with UUO group, FIG. 3B) of the same molecule?
Answer: less than those in corresponding UUO group

Question: And the “obstruction renal weight index (kidney weight/mouse weight at the obstructed side)” value (UUO mice; UUO+chidamide group compared with UUO group, gavage, FIG. 3B)?
Answer: significantly decreased

Question: And the “weight growth curve of mice” value (UUO mice; intragastric administration at various doses (1, 5, 10 mg/kg/d), once a day, 3 days before modeling until 7 days after surgery, FIG. 3A)?
Answer: did not affect the growth of mice

Question: And the “autophagy flow (autophagy markers)” value ([4]; FIG. 7E)?
Answer: restore an autophagy flow

Question: What about the p-Akt/Akt ratio ([4]; FIGS. 7A-C) of the same molecule?
Answer: significantly reduced

Question: What about the p-PI3K/PI3K ratio ([4]; FIGS. 7A-C) of the same molecule?
Answer: significantly reduced
